Patent US20240316000A1, “METHODS OF TREATMENT” (DIFFUSION PHARMACEUTICALS LLC, priority 2021, published 2024)

Legend:
[1] = test system: healthy volunteers exercising at altitude; test: Crossover study in healthy volunteers exercising at simulated altitude of 15,000 feet (arterial blood gas, VO2 max, SpO2, lactate); format: in vivo, human
From the text: This is a double-blind, randomized, placebo-controlled crossover study designed to investigate TSC's effects on oxygen enhancement using an experimental model to induce hypoxia in study participants. The primary endpoints measured in this study are maximal oxygen consumption and partial pressure of arterial blood oxygen in normal healthy volunteers subjected to incremental levels of physical exertion while exposed to hypoxic and hypobaric conditions at a simulated altitude of 15,000 feet above sea level. The secondary endpoints are to assess the effect of TSC on SpO2 and lactate.
A total of 30 healthy volunteers are enrolled in the trial with each subject serving as their own control by completing the experiment twice in a random, blinded order in the same day with a 3-hour rest and wash out period between experimental intervals. During one ascent, study subjects receive intravenous (IV) placebo administration and the other ascent the same subject receives a single IV dose of TSC at one of three dose levels (0.5 mg/kg, 1.5 mg/kg, or 2.5 mg/kg).
Primary analyses will be based on sequence matched changes in median PaO2 and median VO2 following a single administration of TSC versus placebo in subjects exposed to simulated altitude and undergoing exercise. This is a crossover design, repeated measures study where each subject will serve as their own control. Each subject will be randomized to a TSC dose and will also be randomized to their altitude exposure sequence on the day of testing.

[2] = test system: patients with peripheral artery disease; details: 0.25 mg/kg to 2.0 mg/kg tested, cited from earlier work
[3] = Population pharmacokinetics of TSC in plasma (LC-MS/MS, two-compartment model); format: in vivo, human; design: V2 / V1: unit not given here
Procedure: Prior to and following study drug administration, PK samples are obtained at the below intervals: • Pre-dose (within 10 minutes prior to injection) • 1 minute post end of injection (+1 minute) • 10 minutes post end of injection (±1 minute) • 30 minutes post end of injection (±1 minute) • 1.5 hours post end of injection (±2 minutes)
Plasma is assayed for TSC using LC-MS/MS using prednisone as an internal standard. Sample pre-treatment involves a protein precipitation extraction procedure. Lower limit of quantitation is 10 ng/ml.
For 19 of the 24 subjects included in the PK analysis, TSC concentration (Cp: Concentration in Plasma.) in the 1-minute sample is smaller (often many-fold) compared to the 10-minute sample, most likely a result of sampling too soon after the dose is administered. As a result, all 1-minute samples are excluded from population PK analysis.
Based on previous analyses and examination of drug concentration profiles, a two-compartment model with no covariates fit the data well. To determine whether the systemic parameters should be scaled for body size, three scaling approaches are evaluated: scaling all parameters by weight, allometric scaling (clearances scaled by weight raised to the 0.75 power; distribution volumes scaled by weight), and scaling all parameters by weight raised to an estimated power. The weight normalized model is preferred statistically (evaluated by the decrease in the objective function [similar to a sum of squares]) and by graphics. […] A model is evaluated in which clearance varied as a linear function of dose: […]

hemorrhagic shock = details: after hemorrhagic shock in rats; cited from earlier work
[4] = test system: healthy volunteers exercising at altitude; test: Safety assessment in the altitude study; format: in vivo, human; details: all doses tested; no serious adverse events reported
From the text: Adverse Events (AE), and Serious Adverse Events (SAE) will be reported per protocols. Laboratory values (complete blood count [CBC], basic metabolic panel [BMP] HIV, HBsAg, HCVAb), vital signs (blood pressure, heart rate, respiratory rate, temperature), and oxygen saturation (SpO2) will be monitored.

healthy volunteers = test: Safety assessment in the tcpO2 study (adverse events, vital signs); format: in vivo, human
Procedure: Vital signs during the treatment and evaluation period are assessed at 10, 30, and 60 minutes post-study drug dosing. Adverse events are assessed throughout.

[5] = test system: permanent (24-hour) focal ischemia; details: dosages tested 0.023 to 4.580 mg/kg; cited from earlier work
[6] = Solubility of TSC in water with gamma-cyclodextrin; format: physicochemical
[7] = Stability of TSC versus pH; format: physicochemical
[8] = 2.5 mg/kg, end of exercise and 10 minutes post-exercise
[9] = change last exercise to 10-minutes post-exercise, 2.5 mg/kg vs other TSC doses and placebo
[10] = last exercise value minus baseline, 2.5 mg/kg vs other TSC doses and placebo
[11] = last exercise value, 2.5 mg/kg vs other TSC doses and placebo
[12] = population estimate, multiplied by SCALE (WT/75)

CC(/C=C/C=C(\C)C(=O)[O-])=C\C=C\C=C(C)\C=C\C=C(/C)C(=O)O.[Na+] [TSC, trans sodium crocetinate]
Post-exercise recovery (pH, lactate, SpO2 and other markers) ([1]; 2.5 mg/kg, 10 minutes post-exercise versus last exercise measurements): positive effect on post-exercise recovery | Blood pH following exercise under hypoxic conditions [1, 8]: increase in pH | Lactate following exercise under hypoxic conditions [1, 8]: decrease in lactate | Effects on pH at the end of the exercise period versus baseline, compared to placebo ([1]; 2.5 mg/kg, p<0.1): significantly different | Intra-day maximal oxygen consumption tests ([1]; 0.5, 1.5, 2.5 mg/kg IV): no observed changes | Partial pressure of arterial blood oxygen ([1]; 0.5, 1.5, 2.5 mg/kg IV): no observed changes | pH, least square mean ([1]; 10-minute post-exercise change from baseline (smallest reduction), 2.5 mg/kg vs other TSC doses and placebo, p=0.01 vs placebo): highest least square mean value | HCO3, least square mean ([1]; 10-minute post-exercise change from baseline, 2.5 mg/kg vs other TSC doses and placebo): highest least square mean value | Lactic acid, least square mean ([1]; 10-minute post-exercise change from baseline, 2.5 mg/kg vs other TSC doses and placebo, p<0.05 vs 0.5 mg/kg): lowest least square mean value | Oxygen saturation, least square mean ([1]; 10-minute post-exercise change from baseline, 2.5 mg/kg vs other TSC doses and placebo, p<0.05 vs 0.5 mg/kg, p=0.01 vs placebo): highest least square mean value | PAO2, least square mean ([1]; 10-minute post-exercise change from baseline, 2.5 mg/kg vs other TSC doses and placebo, separates statistically from 0.5 mg/kg): highest least square mean value | pH, change ([1]; change last exercise to 10-minutes post-exercise, 2.5 mg/kg): smallest change | Lactic acid, least square mean ([1]; change last exercise to 10-minutes post-exercise, 2.5 mg/kg and 1.5 mg/kg vs other TSC doses and placebo): lowest least square mean value | HCO3, least square mean [1, 9]: highest least square mean value | Oxygen saturation, least square mean [1, 9]: highest least square mean value | PACO2, least square mean [1, 9]: highest least square mean value | PAO2, least square mean [1, 9]: highest least square mean value | PAO2, least square mean ([1]; last exercise value minus baseline, 0.5 mg/kg TSC dose and placebo vs other TSC doses): lowest least square mean value | HCO3, least square mean [1, 10]: highest least square mean value | Oxygen saturation, least square mean [1, 10]: lowest least square mean value | VO2 maximum, least square mean [1, 10]: lowest least square mean value | pH, least square mean ([1]; last exercise value minus baseline, 2.5 mg/kg vs other TSC doses and placebo, separates statistically from 0.5 mg/kg): highest least square mean value | Lactic acid, least square mean ([1]; last exercise value minus baseline, 2.5 mg/kg vs other TSC doses and placebo, trend lower with dose): lowest least square mean value | PACO2, least square mean [1, 11]: highest least square mean value | pH, least square mean [1, 11]: highest least square mean value | Lactic acid, least square mean ([1]; last exercise value, 2.5 mg/kg vs other TSC doses and placebo, p<0.1 vs 0.5 mg/kg, trend lower with dose): lowest least square mean value | Oxygen saturation, least square mean ([1]; last exercise value, 2.5 mg/kg vs other TSC doses and placebo, p<0.1 vs 1.5 mg/kg): lowest least square mean value | HCO3, least square mean ([1]; last exercise value, 2.5 mg/kg vs other TSC doses and placebo, separates statistically from 0.5 mg/kg): highest least square mean value | PAO2, least square mean ([1]; last exercise value, 2.5 mg/kg vs other TSC doses and placebo, separates statistically from 1.5 mg/kg): lowest least square mean value | Sequence effect in subjects who received TSC in the first ascent of the day ([1]; pH change from baseline, p<0.05 placebo first vs second): carry-over | Oxygen saturation, least square mean ([1]; post-exercise value, 2.5 mg/kg vs other TSC doses and placebo): highest least square mean value | PACO2, least square mean ([1]; post-exercise value, 2.5 mg/kg vs other TSC doses and placebo, p<0.05 vs 0.5 mg/kg): highest least square mean value | Lactic acid, least square mean ([1]; post-exercise value, 2.5 mg/kg vs other TSC doses and placebo, p<0.05 vs 0.5 mg/kg, p=0.01 vs placebo): lowest least square mean value | pH, least square mean ([1]; post-exercise value, 2.5 mg/kg vs other TSC doses and placebo, separates from 0.5 mg/kg, p=0.01 vs placebo): highest least square mean value | HCO3, least square mean ([1]; post-exercise value, 2.5 mg/kg vs other TSC doses and placebo, separates statistically from 0.5 mg/kg): highest least square mean value | Dose with greatest increase in claudication onset time [2]: 0.25 mg/kg | Dosing arm with peak increase in peak walking time ([2]; after 5 days of treatment): 1.50 mg/kg | Clearance as a function of dose ([3]; IV bolus 0.5-2.5 mg/kg): clearance decreases at escalating doses | TSC plasma concentrations as a function of dose ([3]; IV bolus 0.5-2.5 mg/kg, highest at 2.5 mg/kg): increase with escalating dose | clearance ([3]; human, plasma, population estimate, single IV bolus 0.5-2.5 mg/kg, multiplied by SCALE (WT/75) and FCTR 1-0.53677 · (DOSE/1.5)): 137 mL/min | Distribution Clearance [3, 12]: 161.176 · SCALE L/day | V1 [3, 12]: 4.277 · SCALE | V2 [3, 12]: 46.61 · SCALE | Whole-body oxygen consumption (hemorrhagic shock): increase whole-body oxygen consumption | Safety and tolerability [4]: safe and well tolerated at all doses tested | Serious adverse events or withdrawals (healthy volunteers; 30 subjects): No subjects experience a serious adverse event | Number of treatment-emergent adverse events determined to be drug-related (healthy volunteers; of nine events, all mild in intensity): five | Subjects with treatment-emergent adverse events (healthy volunteers; seven of the 30 subjects (TSC and placebo cohorts), nine events overall): 23.3% | Safety and tolerability (healthy volunteers; single IV bolus 0.5-2.5 mg/kg): safe and well tolerated | Serious adverse events or dose-limiting toxicities (healthy volunteers; up to and including the 2.5 mg/kg iv dose): no serious adverse events or dose-limiting toxicities | Dosage of maximal protective effect on cerebral infarct volume [5]: 0.092 mg/kg | TSC content of aqueous solutions ([6]; TSC and gamma-cyclodextrin): ≤ 44 milligrams of TSC per ml of solution | TSC content of solutions ([6]; formulated with a cyclodextrin and mannitol): over 20 mg TSC/ml of solution | Stability as a function of pH [7]: more stable at higher pHs
